{"source": "patent US7655677B2", "about": "“Composition and method for controlling house insect pest” (priority 2002, dated 2010)", "format_in_all_cases": "in vivo", "key": {"Reticulitermes speratus [1]": {"test_system": "Reticulitermes speratus", "assay": "Test Example 9: treated filter paper in acrylic cup, termite mortality 5 and 20 days later", "conditions": "1000 ppm", "procedure": "(§1) A filter paper having a diameter of 80 mm was placed in a cylindrical cup made of acrylic resin having a diameter of 80 mm and a height of 60 mm (i.e. a cup having a hole with a diameter of 10 mm formed in the bottom and having hard plaster (Dental Stone) set at the bottom in a thickness of 10 mm), and 1 ml of a solution containing a sample compound in a predetermined concentration, was dropped thereon. Then, ten termite workers and one termite soldier (Reticulitermes speratus) were released thereon. The cup was placed in a container having wet cotton laid over the bottom, and the container was maintained at room temperature of 25° C., and 5 days later and 20 days later, the mortality of termites in the cup was examined."}, "Reticulitermes speratus [2]": {"test_system": "Reticulitermes speratus", "assay": "Test Example 1: treated filter paper in Petri dish, termite mortality after 13 days", "conditions": "312 h", "procedure": "(§2) A filter paper having a diameter of 80 mm was placed in a plastic Petri dish, and 1 ml of a pesticide solution having a predetermined concentration was dropped thereon. After the treatment, the solvent was sufficiently evaporated, and then, 1 ml of distilled water was impregnated to the treated filter paper, whereupon 15 termite workers and one termite soldier (Reticulitermes speratus) were released. The plastic Petri dish was placed in a container having wet cotton laid over the bottom, and the container was maintained at 25° C. for 13 days, whereupon the number of dead termites in the Petri dish was examined, and the mortality was calculated by the following formula.\n(§3) Mortality (%)=(Number of dead termite workers/15 termite workers)×100\n(§4) Further, by the Colby's formula, the theoretical value (%) of mortality can be calculated. In a case where the actual mortality (%) is higher than the theoretical value (%), it can be said that the composition of the present invention has a synergistic effect for controlling the house insect pest."}, "Reticulitermes speratus [3]": {"test_system": "Reticulitermes speratus", "assay": "Test Example 3: treated filter paper in Petri dish, termite mortality after 37 days", "conditions": "Reticulitermes speratus, 888 h", "procedure": "as §3, §4\nas §2, with “concentration,” for “concentration”, “10” for “15”, “workers” for “workers and one termite soldier”, “37” for “13”, “in” for “by”, “same manner as in Test Example 1.” for “following formula.”"}, "Coptotermes formosanus [4]": {"test_system": "Coptotermes formosanus", "assay": "Test Example 24: treated filter paper in Petri dish, termite mortality on 21st or 28th day", "procedure": "as §3, §4\nA filter paper having a diameter of 80 mm was placed in a plastic Petri dish, and 1 ml of a pesticide solution having a predetermined concentration was dropped thereon, whereupon 10 termite workers (Coptotermes formosanus) were released, and a cover was put on the Petri dish. This plastic Petri dish was put in a container having wet cotton laid over the bottom and maintained at room temperature of 25° C. On 21 or 28th day after the treatment, the number of dead termites in the Petri dish was examined, and the mortality was calculated in the same manner as Test Example 1."}, "Reticulitermes speratus [5]": {"test_system": "Reticulitermes speratus", "assay": "Test Example 2: treated filter paper in Petri dish, termite mortality after 17 days", "conditions": "408 h", "procedure": "as §3, §4\nas §2, with “concentration,” for “concentration”, “evaporated” for “evaporated,”, “17 days. Then,” for “13 days, whereupon”, “in” for “by”, “same manner as in Test Example 1.” for “following formula.”"}, "Coptotermes formosanus [6]": {"test_system": "Coptotermes formosanus", "assay": "Test Example 5: treated filter paper in acrylic cup, termite mortality after 7 days", "conditions": "168 h", "procedure": "as §1, with “nine” for “ten”, “(Coptotermes formosanus)” for “(Reticulitermes speratus)”, “C. for 7 days, whereupon” for “C., and 5 days later and 20 days later,”"}, "Priplaneta americana": {"test_system": "Priplaneta americana", "assay": "Test Example 12: mouse feed poison bait, mortality with time", "conditions": "bait 1%", "procedure": "1 g of feeding stuff for mice was treated with 0.5 ml of an acetone solution containing 10 mg of a sample compound and put in a constant temperature chamber at 40° C. for 20 hours to sufficiently evaporate acetone, whereby a poison bait chemical containing 1% of the sample compound was prepared. Then, this poison bait chemical was put into a cup together with a wet cotton, and 10 […] (Priplaneta americana) were released and kept at 25° C. in a breeding room, whereby the mortality was examined as the time passed."}, "Reticulitermes speratus [7]": {"test_system": "Reticulitermes speratus", "assay": "Test Example 6: treated filter paper in acrylic cup, termite mortality after 7 days", "conditions": "168 h", "procedure": "as §1, with “C. for 7 days, whereupon” for “C., and 5 days later and 20 days later,”"}, "Lasius japonicus": {"test_system": "Lasius japonicus", "assay": "Test Example 11: powdered skim milk poison bait, controlling effect on ants 4 days later", "conditions": "bait concentration 1%", "procedure": "1 g of powdered skim milk was treated with 1 ml of an acetone solution containing 10 mg of a sample compound and put in a constant temperature chamber at 40° C. for 20 hours to sufficiently evaporate acetone. In this manner, a poison bait chemical containing 1% of an active ingredient compound, was prepared. Then, this poison bait chemical was put into a cup together with a wet cotton, and 15 ants (Lasius japonicus) were released. 4 Days later, the mortality was examined. Here, when the mortality 4 days later was at least 40%, the controlling effect was rated to be positive."}}}
{"molecule": "CC(N)=NN=C(Cc1ccc(C(F)(F)F)cc1)c1ccc(Cl)cc1", "note": "[Compound No. II-7, [4′-chloro-2-(4-trifluoromethylphenyl)acetophenone]N′-[1-aminoethylidene]hydrazone]", "values": [{"measurement": "Mortality", "setting": "Reticulitermes speratus [1]; 5 Days later", "value": 100, "unit": "%"}, {"measurement": "Mortality", "setting": "Reticulitermes speratus [1]; 20 Days later", "value": 100, "unit": "%"}]}
{"molecule": "O=C(NC(=O)c1c(F)cccc1F)Nc1cc(Cl)c(Oc2ncc(C(F)(F)F)cc2Cl)c(Cl)c1", "note": "[Chlorfluazuron]", "values": [{"measurement": "mortality at 1000 ppm", "setting": "Reticulitermes speratus [2]", "value": 0, "unit": "%"}, {"measurement": "mortality at 2000 ppm", "setting": "Reticulitermes speratus [2]", "value": 33, "unit": "%"}, {"measurement": "mortality at 4000 ppm", "setting": "Reticulitermes speratus [2]", "value": 53, "unit": "%"}, {"measurement": "mortality at 8000 ppm", "setting": "Reticulitermes speratus [2]", "value": 60, "unit": "%"}, {"measurement": "mortality at 500 ppm", "setting": "Reticulitermes speratus [3]; Chlorfluazuron 500 ppm alone", "value": 30, "unit": "%"}, {"measurement": "mortality at 1000 ppm", "setting": "Reticulitermes speratus [3]; Chlorfluazuron 1000 ppm alone", "value": 50, "unit": "%"}, {"measurement": "mortality at 2000 ppm", "setting": "Reticulitermes speratus [3]; Chlorfluazuron 2000 ppm alone", "value": 50, "unit": "%"}, {"measurement": "mortality at 4000 ppm", "setting": "Reticulitermes speratus [3]; Chlorfluazuron 4000 ppm alone", "value": 50, "unit": "%"}, {"measurement": "mortality at 500 ppm", "setting": "Coptotermes formosanus [4]; Coptotermes formosanus", "value": 20, "unit": "%"}, {"measurement": "mortality at 1000 ppm", "setting": "Coptotermes formosanus [4]; Coptotermes formosanus", "value": 30, "unit": "%"}, {"measurement": "mortality at 2000 ppm", "setting": "Coptotermes formosanus [4]; Coptotermes formosanus", "value": 30, "unit": "%"}]}
{"molecule": "O=C(NC(=O)c1c(F)cccc1F)Nc1cc(Cl)c(OC(F)(F)C(F)F)c(Cl)c1", "note": "[Hexaflumuron]", "values": [{"measurement": "mortality at 1000 ppm", "setting": "Reticulitermes speratus [5]", "value": 40, "unit": "%"}, {"measurement": "mortality at 2000 ppm", "setting": "Reticulitermes speratus [5]", "value": 40, "unit": "%"}, {"measurement": "mortality at 4000 ppm", "setting": "Reticulitermes speratus [5]", "value": 20, "unit": "%"}, {"measurement": "mortality at 8000 ppm", "setting": "Reticulitermes speratus [5]", "value": 33, "unit": "%"}]}
{"molecule": "Cc1c(COC(=O)[C@@H]2[C@H](/C=C(\\Cl)C(F)(F)F)C2(C)C)cccc1-c1ccccc1", "note": "(racemic) [Bifenthrin]", "values": [{"measurement": "Mortality", "setting": "Coptotermes formosanus [4]; Bifenthrin 0.25 ppm alone, 28th day", "value": 0, "unit": "%"}, {"measurement": "mortality at 0.25 ppm", "setting": "Coptotermes formosanus [4]; Coptotermes formosanus", "value": 0, "unit": "%"}, {"measurement": "mortality at 0.5 ppm", "setting": "Coptotermes formosanus [4]; Coptotermes formosanus", "value": 10, "unit": "%"}, {"measurement": "mortality at 1 ppm", "setting": "Coptotermes formosanus [4]; Coptotermes formosanus", "value": 40, "unit": "%"}]}
{"molecule": "CCOP(=S)(OCC)Oc1nc(Cl)c(Cl)cc1Cl", "note": "[Chlorpyrifos, reference compound]", "values": [{"measurement": "mortality at 500 ppm", "setting": "Coptotermes formosanus [6]", "value": 100, "unit": "%"}, {"measurement": "mortality at 1000 ppm", "setting": "Coptotermes formosanus [6]", "value": 100, "unit": "%"}, {"measurement": "Mortality", "setting": "Priplaneta americana; 1 Day later", "value": 100, "unit": "%"}, {"measurement": "Mortality", "setting": "Priplaneta americana; 8 Days later", "value": 100, "unit": "%"}, {"measurement": "Mortality", "setting": "Priplaneta americana; 48 Days later", "value": 100, "unit": "%"}, {"measurement": "mortality at 1000 ppm", "setting": "Reticulitermes speratus [7]", "value": 100, "unit": "%"}]}
{"molecule": "CC(=NN=C(Cc1ccc(C(F)(F)F)cc1)c1ccc(Cl)cc1)N(C)C", "note": "[Compound No. II-1, [4′-chloro-2-(4-trifluoromethylphenyl)acetophenone]N′-[1-(dimethylamino)ethylidene]hydrazone]", "values": [{"measurement": "Mortality", "setting": "Reticulitermes speratus [1]; 5 Days later", "value": 0, "unit": "%"}, {"measurement": "Mortality", "setting": "Reticulitermes speratus [1]; 20 Days later", "value": 100, "unit": "%"}]}
{"molecule": "CC(=NN=C(Cc1ccc(C(C)(C)C)cc1)c1ccc(C)cc1)N(C)C", "note": "[Compound No. II-6, [4′-methyl-2-(4-tert-butylphenyl)acetophenone]N′-[1-(dimethylamino)ethylidene]hydrazone]", "values": [{"measurement": "Mortality", "setting": "Reticulitermes speratus [1]; 5 Days later", "value": 70, "unit": "%"}, {"measurement": "Mortality", "setting": "Reticulitermes speratus [1]; 20 Days later", "value": 100, "unit": "%"}, {"measurement": "Controlling effect", "setting": "Lasius japonicus", "value": "Positive (when the mortality 4 days later was at least 40%, the controlling effect was rated to be positive)"}]}
{"molecule": "CCOC(=O)NN=C(Cc1ccc(C(F)(F)F)cc1)c1ccc(Cl)cc1", "note": "[Compound No. II-3]", "values": [{"measurement": "Mortality", "setting": "Priplaneta americana; 1 Day later", "value": 0, "unit": "%"}, {"measurement": "Mortality", "setting": "Priplaneta americana; 8 Days later", "value": 100, "unit": "%"}, {"measurement": "Mortality", "setting": "Priplaneta americana; 48 Days later", "value": 100, "unit": "%"}, {"measurement": "Mortality", "setting": "Reticulitermes speratus [1]; 5 Days later", "value": 0, "unit": "%"}, {"measurement": "Mortality", "setting": "Reticulitermes speratus [1]; 20 Days later", "value": 100, "unit": "%"}]}
